According to article PMC4764977, “AZD8797 is an allosteric non-competitive modulator of the human CX3CR1 receptor” (Biochemical Journal, 2016):

Experiments:
[1] = molecular target: T1, CX3CR1 (Homo sapiens, UniProt P49238); assay: 125I-CX3CL1 kinetic radioligand binding, CHO-hCX3CR1 membranes; design: host or cells: CHO-K1
T1 sequence (P49238 1-355): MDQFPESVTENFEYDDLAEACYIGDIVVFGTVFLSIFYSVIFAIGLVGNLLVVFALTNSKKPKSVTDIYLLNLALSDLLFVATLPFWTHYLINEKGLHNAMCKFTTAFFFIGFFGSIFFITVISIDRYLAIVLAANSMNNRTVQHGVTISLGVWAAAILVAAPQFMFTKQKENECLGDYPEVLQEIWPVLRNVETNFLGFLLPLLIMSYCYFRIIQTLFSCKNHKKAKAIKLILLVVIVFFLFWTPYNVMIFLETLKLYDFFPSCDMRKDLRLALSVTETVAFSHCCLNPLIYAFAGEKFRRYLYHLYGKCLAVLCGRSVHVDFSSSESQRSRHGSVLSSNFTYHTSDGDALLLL
Protocol: Incubation times ranged from 2.5 min to 4 h. For the association experiments, the radioligand data were fitted to the following monophasic exponential association equation and the association rate (kon) was calculated using the added amounts of radioligand (L) and dissociation rate (koff) as constants. koff was measured in separate dissociation experiments. The dissociation data were fitted to the monophasic exponential decay equation: where Y0 is the binding (cpm) at time zero, X is the time and NS is the (non-specific) binding at infinite times. […] Multiple compound dissociation data were fitted to the biphasic exponential decay equation: […]

[2] = molecular target: T1, CX3CR1; assay: Equilibrium saturation binding, CHO-hCX3CR1 membranes; design: host or cells: CHO-K1; conditions: GTPγS added (100 μM)
Protocol: Cells were washed in PBS and lysed with an Ultra-Turrax Homogenizer in 50 mM Tris/HCl (pH 7.4) and 1 mM EDTA with Complete™ protease inhibitor (Roche). […] Protein concentration was determined using the BCA method (Thermo Fisher Scientific). […] The filter plate was washed in ice-cold 25 mM HEPES (pH 7.4), 5 mM MgCl2, 1 mM CaCl2 and 500 mM NaCl and dried at 50°C for 1 h. Scintillation cocktail, Optiphase Supermix (PerkinElmer) was added to each well and the radioactivity was measured using a MicroBeta Trilux reader (PerkinElmer). […] The DMSO concentration was held constant at 1%. where Kd is the radioligand dissociation constant. Saturation binding isotherms were analysed by non-linear regression and globally fitted to a hyperbolic one-site binding model taking into account both NSB and total binding to calculate the total receptor number (Bmax) and radioligand dissociation constant (Kd): […] NSB=NS·X+Background, where NS is the concentration-dependent NSB. To visualize the manner of binding of CX3CL1 and AZD8797, a diagnostic affinity ratio plot designed to compare strictly competitive behaviour with allosteric interactions was used. […] For single site competitive interactions, the resulting linear plot has the slope of 1.0. For allosteric but competitive interactions, the slope will start at 1.0 but progressively deviate from unity, eventually reaching a limit governed by the allosteric ternary complex model co-operativity factor α [21, 22].

[3] = molecular target: T2, CX3CR1 (Homo sapiens, UniProt P49238); assay: 125I-CX3CL1 saturation radioligand binding (CHO-hCX3CR1 membranes)
T2 chain: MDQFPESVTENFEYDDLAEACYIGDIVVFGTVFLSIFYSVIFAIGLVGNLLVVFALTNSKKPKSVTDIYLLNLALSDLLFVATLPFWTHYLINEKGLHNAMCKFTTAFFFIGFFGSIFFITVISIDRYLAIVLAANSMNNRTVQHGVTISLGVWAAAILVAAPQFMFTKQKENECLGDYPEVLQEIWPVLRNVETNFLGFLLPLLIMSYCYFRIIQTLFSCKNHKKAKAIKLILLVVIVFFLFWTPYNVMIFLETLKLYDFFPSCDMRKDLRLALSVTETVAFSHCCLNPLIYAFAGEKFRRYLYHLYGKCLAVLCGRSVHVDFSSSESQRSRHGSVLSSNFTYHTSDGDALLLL

[4] = molecular target: T2, CX3CR1; assay: 125I-CX3CL1 competition radioligand binding (CHO-hCX3CR1 membranes)
[5] = co-adding 100 μM GTPγS + 100 nM CX3CL1, two-phase model, n=2

## Nc1nc2c(ncn2[C@@H]2O[C@H](COP(=O)(O)OP(=O)(O)OP(O)(O)=S)[C@@H](O)[C@H]2O)c(=O)[nH]1 [GTPγS, guanosine 5′-[γ-thio]triphosphate, reference compound]
[1]; [5]
  k1off of 125I-CX3CL1 dissociation: 0.55 min⁻¹
  k2off of 125I-CX3CL1 dissociation: 0.0084 min⁻¹
[1]; results not shown
  Effect on 125I-CX3CL1 association rate (kon): no effect
  Effect on maximal binding of 125I-CX3CL1 in association experiments: no effect
[2]
  Effect on [3H]AZD8797 and 125I-CX3CL1 equilibrium saturation binding: no effect

B1: CX3CL1 (fractalkine) chemokine domain (protein)
chain: LAGQHHGVTKCNITCSKMTSKIPVALLIHYQQNQASCGKRAIILETRQHRLFCADPKEQWVKDAMQHLDRQAAALTRNGGTF
modifications: 125I-labelled CX3CL1
[3]
  Kd: 0.19 nM

B2: CX3CL1 (fractalkine) chemokine domain (protein)
chain: LAGQHHGVTKCNITCSKMTSKIPVALLIHYQQNQASCGKRAIILETRQHRLFCADPKEQWVKDAMQHLDRQAAALTRNGGTF
[4]
  Ki: 0.29 nM
